In US20080318938A1, “METHODS FOR TREATING ABERRANT CELL PROLIFERATION DISORDERS” (priority 2007, published 2008):

Key:
M2 Muscarinic receptor = M2 Muscarinic receptor (Homo sapiens, UniProt P08172); test: Receptor binding
Neurokinin NK2 receptor = Neurokinin NK2 receptor (Homo sapiens, UniProt P21452); test: Receptor binding
M1 Muscarinic receptor = M1 Muscarinic receptor (Homo sapiens, UniProt P11229); test: Receptor binding
bone marrow cells (BMCs) = test: RNA synthesis and cell viability of bone marrow cells from treated rats; type: in vivo; details: 10 mg/kg daily for 5 days, BMCs isolated 24 hours after last dose
Experimental: Rats were treated with 10 milligrams per kilogram of Compound TA1-1B daily for five (5) days. Twenty-four (24) hours after the last dose the bone marrow was isolated, and bone marrow cells (BMCs) were tested for RNA synthesis activity and cell viability
The following process was utilized to measure total RNA synthesis. For animals treated with compound TA1-1B, BMCs were isolated and plated overnight at 100,000 cells per mL. Next day cells were incubated for one hour with 5 μCi of [^3H]-uridine. To measure total RNA synthesis, total RNA from treated cells was isolated with a RNease kit (QIAGEN), levels of total RNA were assessed with Ribogreen reagent (Invitrogen) and the newly synthesized tritiated RNA was measured in a scintillation Counter (Perkin Elmer) in a tritium channel.
The following process was utilized to measure cell viability, which involves the use of an Alamar Blue dye. Cells are counted using a hemocytometer, and 4,000-5,000 cells (per well) in 100 microliter of medium are seeded into wells 96-well plate. […] Fluorescence is recorded at an excitation wavelength of 544 nm and emission wavelength of 590 nm using a microplate reader. Fluorescence of […] dye is detected and effects of drug treatment on BMC viablity is determined.

CCRF-CEM = test: Inhibition of cell proliferation (MTT); type: cell-based, human; details: Leukemia
Experimental: (§1) Inhibition of cell proliferation is determined in human tumor cell lines. Innoculation density and doubling times for specific cell lines are listed at World Wide Web URL “dtp.nci.nih.gov/docs/misc/common_files/cell_list.html.”
(§2) • 1. Plate adherent cells the day before starting the experiment in 180 μl growth media (see list hereafter). • 2. Day of experiment, count and plate suspension cells in 180 μl growth media (see list on next page). • 3. Make 10× Compound, vehicle, and chemotherapeutic cocktail • a. Compound (1× to 10×) • i. 10 μM Compound to 100 μM • ii. 3 μM Compound to 30 μM • iii. 1 μM Compound to 10 μM • iv. 0.3 μM Compound to 3 μM • v. 0.1 μM Compound to 1 μM • b. Vehicle • i. PBS, equivalent to the volume used for 10 μM Compound (1× is ˜0.06% PBS) • c. Chemotherapeutic cocktail (1× to 10×): • i. 1 μM Velcade to 10 μM • ii. 100 μM Etoposide to 1 mM • iii. 20 μM Taxol to 200 μM • 4. Add 20 μl of the 10× compound/vehicle/chemotherapeutic cocktail to cells. • 5. Incubate at 37° C., 5% CO2 for 48 hours. • 6. Aspirate media. For suspension cells, spin plate at 1500 RPM for 10 minutes. Use a multichannel pipettor to slowly remove media. • 7. Add 200 μl of Thiazolyl Blue Tetrazolium Bromide (MTT) to each well: 0.863 mg/ml MTT in growth media.
(§3) Proliferation of several cancer cells was inhibited by compound TA1-1B (which is a particular mixture of the isomers represented by TA1-1A), as shown in the following table (Table 1). The value EC50 is the amount of Compound TA1-1B that results in 50% inhibition of proliferation of the indicated cell type.

SR = test: Inhibition of cell proliferation (MTT); type: cell-based, human; details: Leukemia
Experimental: as §1, §2, §3

HOP-92 = test: Inhibition of cell proliferation (MTT); type: cell-based, human; details: HOP-92, Non Small Cell Lung
Experimental: as §1, §2, §3

SST5 = SST5 (Homo sapiens, UniProt P35346); test: Receptor binding
Chain of SST5 (P35346 whole entry, species assumed): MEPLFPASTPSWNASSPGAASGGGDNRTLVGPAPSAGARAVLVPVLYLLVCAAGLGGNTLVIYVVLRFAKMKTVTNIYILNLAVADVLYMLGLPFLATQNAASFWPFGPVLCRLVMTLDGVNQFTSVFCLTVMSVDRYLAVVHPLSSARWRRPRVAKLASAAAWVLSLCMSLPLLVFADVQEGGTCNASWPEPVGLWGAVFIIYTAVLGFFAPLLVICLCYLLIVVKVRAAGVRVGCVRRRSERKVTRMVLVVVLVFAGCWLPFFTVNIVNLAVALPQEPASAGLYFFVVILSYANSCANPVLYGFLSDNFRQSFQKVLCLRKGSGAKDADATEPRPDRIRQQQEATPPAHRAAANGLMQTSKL
Experimental: (§4) The binding IC50, functional effect, and functional EC50 of TA1-1B on exemplary receptors was determined.

SST4 = SST4 (Homo sapiens, UniProt P31391); test: Receptor binding
Chain of SST4 (P31391 whole entry, species assumed): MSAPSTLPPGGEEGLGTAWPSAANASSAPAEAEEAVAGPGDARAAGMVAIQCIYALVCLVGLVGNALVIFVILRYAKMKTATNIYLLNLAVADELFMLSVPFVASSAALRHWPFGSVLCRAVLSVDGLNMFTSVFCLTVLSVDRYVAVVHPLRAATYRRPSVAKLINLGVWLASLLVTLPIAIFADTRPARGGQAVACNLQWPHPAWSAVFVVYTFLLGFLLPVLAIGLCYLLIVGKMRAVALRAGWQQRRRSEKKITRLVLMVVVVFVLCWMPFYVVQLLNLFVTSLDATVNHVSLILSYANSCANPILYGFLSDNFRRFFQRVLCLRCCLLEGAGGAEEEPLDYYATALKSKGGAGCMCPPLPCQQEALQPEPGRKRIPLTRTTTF
Experimental: as §4

[1] = target: CCKA/CCK1 Cholecystokinin receptor (Homo sapiens, UniProt P32238); test: Receptor binding
Chain of CCKA/CCK1 Cholecystokinin receptor (P32238 whole entry): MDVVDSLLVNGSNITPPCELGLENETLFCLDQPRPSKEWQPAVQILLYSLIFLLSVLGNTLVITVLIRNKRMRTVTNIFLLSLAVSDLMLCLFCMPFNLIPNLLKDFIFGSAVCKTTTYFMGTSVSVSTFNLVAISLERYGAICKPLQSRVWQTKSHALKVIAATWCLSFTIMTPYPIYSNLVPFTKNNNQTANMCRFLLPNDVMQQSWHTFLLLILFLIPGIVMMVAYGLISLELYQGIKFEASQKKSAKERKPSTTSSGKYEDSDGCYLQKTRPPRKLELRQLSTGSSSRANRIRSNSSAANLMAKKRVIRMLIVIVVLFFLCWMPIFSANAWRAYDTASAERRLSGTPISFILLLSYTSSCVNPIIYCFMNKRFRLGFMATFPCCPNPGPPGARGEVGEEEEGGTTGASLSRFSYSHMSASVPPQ
Experimental: as §4

SST1 = SST1 (Homo sapiens, UniProt P30872); test: Receptor binding
Chain of SST1 (P30872 whole entry, species assumed): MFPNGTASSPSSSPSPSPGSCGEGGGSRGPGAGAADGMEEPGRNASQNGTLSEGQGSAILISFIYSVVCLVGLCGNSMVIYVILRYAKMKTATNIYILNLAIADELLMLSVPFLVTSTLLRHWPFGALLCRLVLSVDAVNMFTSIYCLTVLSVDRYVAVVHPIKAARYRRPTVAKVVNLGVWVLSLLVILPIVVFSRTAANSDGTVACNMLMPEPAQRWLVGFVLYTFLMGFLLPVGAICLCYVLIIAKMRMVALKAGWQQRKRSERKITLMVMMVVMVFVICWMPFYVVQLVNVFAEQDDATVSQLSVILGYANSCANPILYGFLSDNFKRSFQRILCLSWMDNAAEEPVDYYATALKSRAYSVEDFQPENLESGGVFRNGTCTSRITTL
Experimental: as §4

M4 Muscarinic receptor = M4 Muscarinic receptor (Homo sapiens, UniProt P08173); test: Receptor binding
Chain of M4 Muscarinic receptor (P08173 whole entry): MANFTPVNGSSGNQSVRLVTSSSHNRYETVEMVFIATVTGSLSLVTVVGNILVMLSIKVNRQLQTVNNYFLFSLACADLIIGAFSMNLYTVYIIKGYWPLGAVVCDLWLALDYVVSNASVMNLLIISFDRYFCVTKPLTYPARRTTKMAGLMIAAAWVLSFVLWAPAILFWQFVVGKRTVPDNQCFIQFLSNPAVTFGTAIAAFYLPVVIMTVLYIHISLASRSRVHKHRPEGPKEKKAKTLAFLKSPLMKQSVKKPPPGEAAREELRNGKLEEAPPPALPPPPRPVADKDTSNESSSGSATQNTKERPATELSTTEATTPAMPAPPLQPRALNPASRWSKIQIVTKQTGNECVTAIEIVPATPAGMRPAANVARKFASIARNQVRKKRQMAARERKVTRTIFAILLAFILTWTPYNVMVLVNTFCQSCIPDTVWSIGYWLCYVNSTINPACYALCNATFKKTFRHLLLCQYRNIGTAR

OVCAR-5 = test: Inhibition of cell proliferation (MTT); type: cell-based; details: Homo sapiens; OVCAR-5, Ovarian; 48 hours
Procedure, shortened: (§5)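 Tumor cells received test compound at five final concentrations (0.1, 0.3, 1, 3, 10 μM) for 48 h. Growth was then assessed by MTT.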

NCI-H322M = test: Inhibition of cell proliferation (MTT); type: cell-based; details: Homo sapiens, Non Small Cell Lung, 48 hours
Procedure, shortened: as §5

HT = test: Inhibition of cell proliferation (MTT); type: cell-based; details: Homo sapiens, Lymphoma, 48 hours
Procedure, shortened: as §5

[2] = system: 5-HT1B 5-hydroxytryptamine (serotonin) receptor 1B; test: Receptor binding
[3] = target: CCKB/CCK2 Cholecystokinin receptor (Homo sapiens, UniProt P32239); test: Receptor binding
Chain of CCKB/CCK2 Cholecystokinin receptor (P32239 whole entry): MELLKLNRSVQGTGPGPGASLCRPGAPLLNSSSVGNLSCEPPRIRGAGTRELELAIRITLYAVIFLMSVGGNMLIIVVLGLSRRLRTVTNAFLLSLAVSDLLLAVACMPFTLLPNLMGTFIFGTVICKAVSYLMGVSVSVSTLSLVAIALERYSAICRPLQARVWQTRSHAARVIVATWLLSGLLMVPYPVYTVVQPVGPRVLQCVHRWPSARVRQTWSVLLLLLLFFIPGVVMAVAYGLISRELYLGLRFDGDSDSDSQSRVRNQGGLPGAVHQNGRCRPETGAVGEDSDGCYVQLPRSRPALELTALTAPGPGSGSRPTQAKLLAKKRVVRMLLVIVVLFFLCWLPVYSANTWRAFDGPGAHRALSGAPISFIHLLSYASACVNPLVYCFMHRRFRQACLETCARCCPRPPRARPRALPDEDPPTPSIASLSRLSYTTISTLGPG

H2-receptor = H2-receptor (Homo sapiens, UniProt P25021); test: Receptor binding
Chain of H2-receptor (P25021 whole entry): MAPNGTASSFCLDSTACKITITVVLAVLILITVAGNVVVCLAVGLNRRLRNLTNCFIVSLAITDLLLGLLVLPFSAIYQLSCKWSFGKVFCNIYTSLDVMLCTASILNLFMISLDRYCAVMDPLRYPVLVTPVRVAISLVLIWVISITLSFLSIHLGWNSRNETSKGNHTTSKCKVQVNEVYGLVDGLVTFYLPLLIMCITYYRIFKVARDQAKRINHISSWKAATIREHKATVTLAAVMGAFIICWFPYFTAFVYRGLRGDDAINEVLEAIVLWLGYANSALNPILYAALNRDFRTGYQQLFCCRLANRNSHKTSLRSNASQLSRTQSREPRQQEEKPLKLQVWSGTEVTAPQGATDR

[4] = system: σ (non-selective) sigma receptors; test: Receptor binding

Chain of M2 Muscarinic receptor (P08172 whole entry): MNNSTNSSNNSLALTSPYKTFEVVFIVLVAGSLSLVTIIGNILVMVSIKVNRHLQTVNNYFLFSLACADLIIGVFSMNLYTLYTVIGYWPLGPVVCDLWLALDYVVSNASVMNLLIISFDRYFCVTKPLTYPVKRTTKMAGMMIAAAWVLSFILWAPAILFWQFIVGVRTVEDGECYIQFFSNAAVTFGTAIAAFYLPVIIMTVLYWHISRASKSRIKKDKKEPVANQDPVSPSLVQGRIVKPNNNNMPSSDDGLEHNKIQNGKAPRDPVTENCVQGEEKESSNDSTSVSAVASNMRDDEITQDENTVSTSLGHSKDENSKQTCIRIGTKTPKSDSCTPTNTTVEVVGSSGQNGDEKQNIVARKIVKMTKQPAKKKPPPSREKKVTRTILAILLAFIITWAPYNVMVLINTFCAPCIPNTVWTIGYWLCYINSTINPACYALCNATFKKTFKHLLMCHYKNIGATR
Chain of M1 Muscarinic receptor (P11229 whole entry): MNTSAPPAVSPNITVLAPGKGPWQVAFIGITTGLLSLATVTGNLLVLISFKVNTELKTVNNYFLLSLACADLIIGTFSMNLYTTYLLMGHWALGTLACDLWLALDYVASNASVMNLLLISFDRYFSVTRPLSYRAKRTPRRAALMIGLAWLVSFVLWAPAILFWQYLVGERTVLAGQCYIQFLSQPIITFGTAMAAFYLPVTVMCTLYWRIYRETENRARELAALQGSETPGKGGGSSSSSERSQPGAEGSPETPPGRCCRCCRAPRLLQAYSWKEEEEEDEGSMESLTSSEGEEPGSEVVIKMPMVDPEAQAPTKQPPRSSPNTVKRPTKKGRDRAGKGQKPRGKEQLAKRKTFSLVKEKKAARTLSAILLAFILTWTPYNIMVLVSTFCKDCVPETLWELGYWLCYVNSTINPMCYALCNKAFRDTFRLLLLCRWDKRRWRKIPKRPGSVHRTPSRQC
Chain of Neurokinin NK2 receptor (P21452 whole entry): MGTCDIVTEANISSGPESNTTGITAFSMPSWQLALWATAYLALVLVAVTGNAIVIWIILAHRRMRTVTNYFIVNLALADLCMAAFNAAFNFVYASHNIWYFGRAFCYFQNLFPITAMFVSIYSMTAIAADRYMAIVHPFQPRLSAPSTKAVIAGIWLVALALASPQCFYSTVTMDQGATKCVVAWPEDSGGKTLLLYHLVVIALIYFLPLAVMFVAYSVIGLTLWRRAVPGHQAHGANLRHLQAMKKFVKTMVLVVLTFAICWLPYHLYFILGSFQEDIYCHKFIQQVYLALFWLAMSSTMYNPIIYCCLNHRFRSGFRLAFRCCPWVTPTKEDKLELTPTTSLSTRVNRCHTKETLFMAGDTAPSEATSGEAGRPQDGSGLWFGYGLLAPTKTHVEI

**Q.** How did the inhibition at 1 µM (M2 Muscarinic receptor) turn out when `CN1CCC[C@H]1CCNC(=O)c1cn2c3c(c(N4CCC(c5cnccn5)C4)c(F)cc3c1=O)Oc1cc3ccccc3cc1-2` (some centres unmarked) [TA1-1B] was run?
**A.** 92%

**Q.** What about the inhibition at 1 µM (Neurokinin NK2 receptor) of the same compound?
**A.** 107%

**Q.** What about the inhibition at 1 µM (M1 Muscarinic receptor) of the same compound?
**A.** 98%

**Q.** What about the “Toxicity to bone marrow cells (RNA synthesis and cell viability)” value (bone marrow cells (BMCs)) of the same compound?
**A.** not toxic

**Q.** What about the EC50 (CCRF-CEM; Homo sapiens, 48 h) of the same compound?
**A.** 630 nM

**Q.** What about the EC50 (CCRF-CEM; 48 hours) of the same compound?
**A.** 1220 nM

**Q.** What about the EC50 (SR; Homo sapiens, 48 h) of the same compound?
**A.** 914 nM

**Q.** And the EC50 (SR; 48 hours)?
**A.** 1300 nM

**Q.** And the EC50 (HOP-92; 48 hours)?
**A.** 1960 nM

**Q.** And the EC50 (HOP-92; Homo sapiens, HOP-92, 48 h)?
**A.** 1800 nM

**Q.** What about the IC50 (SST5) of the same compound?
**A.** > 10000 nM

**Q.** What about the IC50 (SST4) of the same compound?
**A.** > 10000 nM

**Q.** What about the IC50 ([1]; CCK1/CCKA) of the same compound?
**A.** 640 nM

**Q.** What about the inhibition at 1 µM ([1]; CCKA/CCK1, 1 uM) of the same compound?
**A.** 64%

**Q.** What about the IC50 (SST1) of the same compound?
**A.** 2800 nM

**Q.** And the inhibition at 1 µM (M4 Muscarinic receptor)?
**A.** 87%

**Q.** And the EC50 (OVCAR-5)?
**A.** 2170 nM

**Q.** What about the EC50 (NCI-H322M) of the same compound?
**A.** 4280 nM

**Q.** What about the EC50 (HT) of the same compound?
**A.** 2440 nM

**Q.** What about the “% inhibition @ 1 uM” value [2] of the same compound?
**A.** 49%

**Q.** And the inhibition at 1 µM [3]?
**A.** 93%

**Q.** And the inhibition at 1 µM (H2-receptor)?
**A.** 48%

**Q.** What about the “% inhibition @ 1 uM” value [4] of the same compound?
**A.** 67%
